# Key:
# Assay in all cases: relative viability (nuclei count vs DMSO), 5 days (fraction); higher = more cells survive
# NCI-H1395 = system: NCI-H1395
# Summary of the method: (§1)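 Cells from lung cancer lines were seeded into 1536-well plates and, one day later, dosed by pin tool. Treatments were either a single drug or a fixed dose of an anchor drug with five library-drug doses (not always all listed) in √10 steps. After 5 days, nuclei were stained in a one-step fixation (final 0.05% Triton X-100, 1% formaldehyde, 1 ug/ml Hoechst) and counted on 4× images, and relative viability is the treated-to-vehicle nuclei ratio, as the median of duplicate plates.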
# COR-L 105 = system: COR-L 105
# Summary of the method: as §1
# COR-L23 = system: COR-L23
# Summary of the method: as §1
# NCI-H1793 = system: NCI-H1793
# Summary of the method: as §1
# HARA = system: HARA
# Summary of the method: as §1
# NCI-H2228 = system: NCI-H2228
# Summary of the method: as §1
# UMC-11 = system: UMC-11
# Summary of the method: as §1
# NCI-H2347 = system: NCI-H2347
# Summary of the method: as §1
# HOP-62 = system: HOP-62
# Summary of the method: as §1
# HCC-15 = system: HCC-15
# Summary of the method: as §1
# NCI-H2009 = system: NCI-H2009
# Summary of the method: as §1
# NCI-H1734 = system: NCI-H1734
# Summary of the method: as §1
# NCI-H1755 = system: NCI-H1755
# Summary of the method: as §1
# SK-MES-1 = system: SK-MES-1
# Summary of the method: as §1
# NCI-H838 = system: NCI-H838
# Summary of the method: as §1
# NCI-H1993 = system: NCI-H1993
# Summary of the method: as §1
# NCI-H1355 = system: NCI-H1355
# Summary of the method: as §1
# NCI-H647 = system: NCI-H647
# Summary of the method: as §1
# NCI-H358 = system: NCI-H358
# Summary of the method: as §1
# NCI-H2170 = system: NCI-H2170
# Summary of the method: as §1
compound,measurement,setting,value
Cc1sc2c(c1C)C(c1ccc(Cl)cc1)=N[C@@H](CC(=O)OC(C)(C)C)c1nnc(C)n1-2 [JQ1] + COc1cc2c(Oc3ccc(NC(=O)C4(C(=O)Nc5ccc(F)cc5)CC4)cc3F)ccnc2cc1OCCCN1CCOCC1 [Foretinib] (partner 0.25 µM),relative viability,NCI-H1395; first compound 0.04 µM,0.716
same,relative viability,NCI-H1395; first compound 0.1265 µM,0.955
same,relative viability,NCI-H1395; first compound 0.4 µM,1
same,relative viability,NCI-H1395; first compound 1.265 µM,0.732
same,relative viability,NCI-H1395; first compound 4 µM,0.525
same,relative viability,COR-L 105; first compound 0.04 µM,0.794
same,relative viability,COR-L 105; first compound 0.1265 µM,0.604
same,relative viability,COR-L 105; first compound 0.4 µM,0.656
same,relative viability,COR-L 105; first compound 1.265 µM,0.219
same,relative viability,COR-L 105; first compound 4 µM,0.272
same,relative viability,COR-L23; first compound 0.04 µM,0.98
same,relative viability,COR-L23; first compound 0.1265 µM,0.73
same,relative viability,COR-L23; first compound 0.4 µM,0.892
same,relative viability,COR-L23; first compound 1.265 µM,0.663
same,relative viability,COR-L23; first compound 4 µM,0.432
same,relative viability,NCI-H1793; first compound 0.04 µM,0.65
same,relative viability,NCI-H1793; first compound 0.1265 µM,0.788
same,relative viability,NCI-H1793; first compound 0.4 µM,0.713
same,relative viability,NCI-H1793; first compound 1.265 µM,0.728
same,relative viability,NCI-H1793; first compound 4 µM,0.483
same,relative viability,HARA; first compound 0.04 µM,0.89
same,relative viability,HARA; first compound 0.1265 µM,0.647
same,relative viability,HARA; first compound 0.4 µM,0.572
same,relative viability,HARA; first compound 1.265 µM,0.343
same,relative viability,HARA; first compound 4 µM,0.227
same,relative viability,NCI-H2228; first compound 0.04 µM,0.806
same,relative viability,NCI-H2228; first compound 0.1265 µM,0.766
same,relative viability,NCI-H2228; first compound 0.4 µM,0.647
same,relative viability,NCI-H2228; first compound 1.265 µM,0.481
same,relative viability,NCI-H2228; first compound 4 µM,0.383
same,relative viability,UMC-11; first compound 0.04 µM,0.954
same,relative viability,UMC-11; first compound 0.1265 µM,0.663
same,relative viability,UMC-11; first compound 0.4 µM,0.372
same,relative viability,UMC-11; first compound 1.265 µM,0.286
same,relative viability,UMC-11; first compound 4 µM,0.238
same,relative viability,NCI-H2347; first compound 0.04 µM,1.04
same,relative viability,NCI-H2347; first compound 0.1265 µM,1.15
same,relative viability,NCI-H2347; first compound 0.4 µM,1.02
same,relative viability,NCI-H2347; first compound 1.265 µM,0.842
same,relative viability,NCI-H2347; first compound 4 µM,0.393
same,relative viability,HOP-62; first compound 0.04 µM,0.982
same,relative viability,HOP-62; first compound 0.1265 µM,0.848
same,relative viability,HOP-62; first compound 0.4 µM,0.348
same,relative viability,HOP-62; first compound 1.265 µM,0.241
same,relative viability,HOP-62; first compound 4 µM,0.124
same,relative viability,HCC-15; first compound 0.04 µM,0.914
same,relative viability,HCC-15; first compound 0.4 µM,0.767
same,relative viability,HCC-15; first compound 1.265 µM,0.66
same,relative viability,HCC-15; first compound 4 µM,0.589
same,relative viability,NCI-H2009; first compound 0.04 µM,1.06
same,relative viability,NCI-H2009; first compound 0.1265 µM,0.801
same,relative viability,NCI-H2009; first compound 0.4 µM,0.786
same,relative viability,NCI-H2009; first compound 1.265 µM,0.413
same,relative viability,NCI-H2009; first compound 4 µM,0.352
same,relative viability,NCI-H1734; first compound 0.04 µM,0.963
same,relative viability,NCI-H1734; first compound 0.1265 µM,0.834
same,relative viability,NCI-H1734; first compound 0.4 µM,0.872
same,relative viability,NCI-H1734; first compound 1.265 µM,0.499
same,relative viability,NCI-H1734; first compound 4 µM,0.531
same,relative viability,NCI-H1755; first compound 0.04 µM,0.896
same,relative viability,NCI-H1755; first compound 0.1265 µM,0.831
same,relative viability,NCI-H1755; first compound 0.4 µM,0.945
same,relative viability,NCI-H1755; first compound 1.265 µM,0.793
same,relative viability,NCI-H1755; first compound 4 µM,0.634
same,relative viability,SK-MES-1; first compound 0.04 µM,0.817
same,relative viability,SK-MES-1; first compound 0.1265 µM,0.642
same,relative viability,SK-MES-1; first compound 0.4 µM,0.675
same,relative viability,SK-MES-1; first compound 1.265 µM,0.359
same,relative viability,SK-MES-1; first compound 4 µM,0.333
same,relative viability,NCI-H838; first compound 0.04 µM,1.08
same,relative viability,NCI-H838; first compound 0.1265 µM,0.703
same,relative viability,NCI-H838; first compound 0.4 µM,0.801
same,relative viability,NCI-H838; first compound 1.265 µM,0.31
same,relative viability,NCI-H838; first compound 4 µM,0.285
same,relative viability,NCI-H1993; first compound 0.04 µM,0.794
same,relative viability,NCI-H1993; first compound 0.1265 µM,0.794
same,relative viability,NCI-H1993; first compound 0.4 µM,0.682
same,relative viability,NCI-H1993; first compound 1.265 µM,0.692
same,relative viability,NCI-H1993; first compound 4 µM,0.738
same,relative viability,NCI-H1355; first compound 0.04 µM,0.925
same,relative viability,NCI-H1355; first compound 0.1265 µM,0.936
same,relative viability,NCI-H1355; first compound 0.4 µM,0.735
same,relative viability,NCI-H1355; first compound 1.265 µM,0.677
same,relative viability,NCI-H1355; first compound 4 µM,0.562
same,relative viability,NCI-H647; first compound 0.04 µM,1.21
same,relative viability,NCI-H647; first compound 0.1265 µM,0.914
same,relative viability,NCI-H647; first compound 0.4 µM,0.841
same,relative viability,NCI-H647; first compound 1.265 µM,0.242
same,relative viability,NCI-H647; first compound 4 µM,0.204
same,relative viability,NCI-H358; first compound 0.04 µM,0.686
same,relative viability,NCI-H358; first compound 0.1265 µM,0.83
same,relative viability,NCI-H358; first compound 0.4 µM,0.685
same,relative viability,NCI-H358; first compound 1.265 µM,0.259
same,relative viability,NCI-H358; first compound 4 µM,0.309
same,relative viability,NCI-H2170; first compound 0.04 µM,1.03
same,relative viability,NCI-H2170; first compound 0.1265 µM,0.928
same,relative viability,NCI-H2170; first compound 0.4 µM,0.837
same,relative viability,NCI-H2170; first compound 1.265 µM,0.762
same,relative viability,NCI-H2170; first compound 4 µM,0.626
